Results reported in the Kinase Knowledgebase extract (Sharma et al. 2016).

How the values were obtained:
PIK3CA (human) [1] = target: PIK3CA (human) (UniProt P42336); test: Assessment of PIK3CA Kinase Activity Using One Step Solid Phase Assay
PIK3CA (human) [2] = target: PIK3CA (human) (UniProt P42336); test: Assessment of PIK3CA Kinase Activity Using Homogenous Solution Phase Assay

PIK3CA (human), sequence (P42336 whole entry, looked up): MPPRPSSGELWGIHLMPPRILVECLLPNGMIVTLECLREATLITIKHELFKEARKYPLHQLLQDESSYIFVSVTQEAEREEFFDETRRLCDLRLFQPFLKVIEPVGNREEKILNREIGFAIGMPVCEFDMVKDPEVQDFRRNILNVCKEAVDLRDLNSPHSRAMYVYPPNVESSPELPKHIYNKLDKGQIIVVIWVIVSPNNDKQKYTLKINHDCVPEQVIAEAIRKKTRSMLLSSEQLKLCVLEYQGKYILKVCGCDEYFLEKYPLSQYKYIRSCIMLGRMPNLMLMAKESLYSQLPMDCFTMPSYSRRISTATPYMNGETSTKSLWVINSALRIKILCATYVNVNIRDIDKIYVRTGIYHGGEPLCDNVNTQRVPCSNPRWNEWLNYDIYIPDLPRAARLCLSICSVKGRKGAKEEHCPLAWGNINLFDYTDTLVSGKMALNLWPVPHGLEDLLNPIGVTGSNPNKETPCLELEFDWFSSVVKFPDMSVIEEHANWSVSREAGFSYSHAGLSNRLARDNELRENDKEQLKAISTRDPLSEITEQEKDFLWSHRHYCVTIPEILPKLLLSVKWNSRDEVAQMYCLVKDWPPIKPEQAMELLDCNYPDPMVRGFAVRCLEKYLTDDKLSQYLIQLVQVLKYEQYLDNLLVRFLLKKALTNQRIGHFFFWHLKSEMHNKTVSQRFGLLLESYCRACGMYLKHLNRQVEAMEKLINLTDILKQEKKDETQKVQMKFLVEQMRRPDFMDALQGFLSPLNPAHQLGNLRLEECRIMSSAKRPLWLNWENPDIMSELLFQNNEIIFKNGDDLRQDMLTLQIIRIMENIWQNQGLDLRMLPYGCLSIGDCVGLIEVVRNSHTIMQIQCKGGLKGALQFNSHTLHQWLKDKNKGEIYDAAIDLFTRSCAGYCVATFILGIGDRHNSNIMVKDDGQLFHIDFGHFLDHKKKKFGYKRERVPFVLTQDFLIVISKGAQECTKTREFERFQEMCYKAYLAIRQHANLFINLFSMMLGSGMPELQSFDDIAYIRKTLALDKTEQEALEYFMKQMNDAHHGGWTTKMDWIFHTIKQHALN

SMILES	IC50 (PIK3CA (human) [1]) [µM]	IC50 (PIK3CA (human) [2]) [µM]
c1cc(OCCN2CCCCC2)cc(-c2cc(Nc3ccc4[nH]ncc4c3)nc(N3CCOCC3)n2)c1	< 20	< 20
CC(=O)Oc1cccc(-c2cc(Nc3cccnc3)nc(N3CCOCC3)n2)c1	< 20	< 20
